Measurements: US8349878B2 (Laboratorios del Dr. Esteve, S.A., priority 2006, dated 2013)
Structures can show the parent of a compound that is named as a salt. Where two headings read alike, the source gives them in different places.

Target: T1, σ1-receptor (Cavia porcellus, UniProt Q60492)
T1 construct: guinea pig brains were homogenized; from tissue; host or cells: guinea pig brain membranes
Assay: Sigma-1 receptor binding assay, [3H](+)-pentazocine displacement in guinea pig brain membranes
Conditions: for inhibition at 0.01 µM: read-out: Sigma-1 Inhibition percent (0.01 μM); for inhibition at 0.1 µM: read-out: Sigma-1 Inhibition percent (0.1 μM)
Method: The following protocol was followed:
In brief, guinea pig brains were homogenized in 10 vols. (w/v) of Tris-HCl 50 mM 0.32 M sucrose, pH 7.4, with a Kinematica Polytron PT 3000 at 15000 r.p.m. for 30 s. The homogenate was centrifuged at 1000 g for 10 min at 4° C. and the supernatants collected and centrifuged again at 48000 g for 15 min at 4° C. The pellet was resuspended in 10 volumes of Tris-HCl buffer (50 mM, pH 7.4), incubated at 37° C. for 30 min, and centrifuged at 48000 g for 20 min at 4° C. Following this, the pellet was resuspended in fresh Tris-HCl buffer (50 mM, pH 7.4) and stored on ice until use.
Each assay tube contained 10 μL of [^3H](+)-pentazocine (final concentration of 0.5 nM), 900 μL of the tissue suspension to a final assay volume of 1 mL and a final tissue concentration of approximately 30 mg tissue net weight/mL. Non-specific binding was defined by addition of a final concentration of 1 μM haloperidol. […] Filters were then washed with four times with 4 mL of cold Tris-HCl buffer (50 mM, pH 7.4). Following addition of scintillation cocktail, the samples were allowed to equilibrate overnight.

[1] = compound at 0.01 μM, [3H](+)-pentazocine 0.5 nM, guinea pig brain membranes
[2] = compound at 0.1 μM, [3H](+)-pentazocine 0.5 nM, guinea pig brain membranes
[3] = [3H](+)-pentazocine 0.5 nM, guinea pig brain membranes, read-out: Sigma-1 Ki (nm) Displ. 10^−7 M (10^−8 M)

T1 sequence (Q60492 whole entry): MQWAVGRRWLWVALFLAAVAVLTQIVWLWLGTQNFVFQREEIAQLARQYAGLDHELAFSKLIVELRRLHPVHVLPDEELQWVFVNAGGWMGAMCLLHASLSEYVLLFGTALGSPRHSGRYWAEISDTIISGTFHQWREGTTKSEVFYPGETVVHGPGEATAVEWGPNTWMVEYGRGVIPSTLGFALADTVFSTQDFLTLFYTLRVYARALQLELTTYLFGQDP

Structure (SMILES) | inhibition at 0.01 µM [1] | inhibition at 0.1 µM [2] | Ki [3] | Ki | inhibition at 0.01 µM | inhibition at 0.1 µM
Cc1nc(SCCCCN2CCOCC2)nn1-c1ccc(Cl)c(Cl)c1 [compound 11, 4-[4-(1-(3,4-dichlorophenyl)-5-methyl-1H-1,2,4-triazol-3-yl-thio)butyl]morpholine oxalate] | 14.5% | 66.9% | – | – | – | –
Cc1nc(OCCN2CCOCC2)nn1-c1ccccc1 [compound 28, 4-[2-(5-methyl-1-phenyl-1H-1,2,4-triazol-3-yloxy)ethyl]morpholine] | -20.9% | -3.4% | – | – | – | –
Cc1nc(S(=O)(=O)CCN2CCCC2)nn1-c1ccc(Cl)c(Cl)c1 [compound 19] | 71.8% | 96.4% | 2.2 nM | – | – | –
Cc1nc([S+]([O-])CCN2CCCC2)nn1-c1ccc(Cl)c(Cl)c1 (stereo not shown) [compound 15, 1-[2-(1-(3,4-dichlorophenyl)-5-methyl-1H-1,2,4-triazol-3-yl-sulfinyl)ethyl]pyrrolidine] | 47.2% | 88.9% | 7 nM | – | – | –
CCN(CC)CCSc1nc(C)n(-c2ccc(Cl)c(Cl)c2)n1 [compound 5, 2-(1-(3,4-dichlorophenyl)-5-methyl-1H-1,2,4-triazole-3-yl-thio]-N,N-diethyl ethanamine oxalate] | 104% | 109% | 1.1 nM | – | – | –
Cc1nc(SCCCCCN2CCCC2)nn1-c1ccc(Cl)c(Cl)c1 [compound 14, 1-[5-(1-(3,4-dichlorophenyl)-5-methyl-1H-1,2,4-triazol-3-ylthio)pentyl]pyrrolidine oxalate] | 6% | 52.5% | – | – | – | –
Cc1nc(OCCN2CCCCC2)nn1-c1ccccc1 [compound 29, 1-[2-(5-methyl-1-phenyl-1H-1,2,4-triazol-3-yloxy)ethyl]piperidine] | 5.8% | 46.1% | – | – | – | –
Cc1nc(OCCN2CCCC2)nn1-c1ccccc1 [compound 27, 1-[2-(5-methyl-1-phenyl-1H-1,2,4-triazol-3-yloxy)ethyl]pyrrolidine] | 8.1% | 30.4% | – | – | – | –
Cc1nc(SCCN2CCCCC2)nn1-c1ccc(Cl)c(Cl)c1 [compound 2, 1-[2-(3,4-dichlorophenyl)-5-methyl-1H-1.2.4-triazole-3-yl-thioethyl]piperidine oxalate] | 105% | 109% | 0.8 nM | – | – | –
Cc1nc(OCCCCN2CCOCC2)nn1-c1ccccc1 [compound 30, 4-[4-(5-methyl-1-phenyl-1H-1,2,4-triazol-3-yloxy)butyl]morpholine] | -15.1% | 18.3% | – | – | – | –
CCN(CC)CCOc1nc(C)n(-c2ccccc2)n1 [compound 26, 2-(5-methyl-1-phenyl-1H-1,2,4-triazol-3-yloxy)-N,N-diethyl ethanamine] | 7.3% | 15.2% | – | – | – | –
Cc1nc([S+]([O-])CCN(C(C)C)C(C)C)nn1-c1ccc(Cl)c(Cl)c1 (stereo not shown) [compound 17] | – | – | – | 4 nM | 62.3% | 93.9%
Cc1nc(SCCN2CCOCC2)nn1-c1ccc(Cl)c(Cl)c1 [compound 1, oxalate] | 102% | 107% | 1.1 nM | – | – | –
Cc1nc([S+]([O-])CCCCN2CCC(c3ccccc3)CC2)nn1-c1ccc(Cl)c(Cl)c1 (stereo not shown) [compound 18, 1-[4-(1-(3,4-Dichlorophenyl)-5-methyl-1H-1,2,4-triazol-3-ylsulfinyl)butyl]-4-phenylpiperidine] | -39.5% | 37.2% | – | – | – | –
Cc1nc(S(=O)(=O)CCCCN2CCOCC2)nn1-c1ccc(Cl)c(Cl)c1 [compound 21, 4-[4-(1-(3,4-Dichlorophenyl)-5-methyl-1H-1,2,4-triazol-3-yl-sulfonyl)-butyl]morpholine] | 8.3% | 20.5% | – | – | – | –
Cc1nc(OCCN2CCCCC2)nn1-c1ccc(Cl)c(Cl)c1 [compound 22] | 54.3% | 94.8% | 3.1 ± 1.6 nM | – | – | –
Cc1nc(OCCN2CCCC2)nn1-c1ccc(Cl)c(Cl)c1 [compound 24, 1-[2-(1-(3,4-Dichlorophenyl)-5-methyl-1H-1,2,4-triazol-3-yloxy)ethyl]pyrrolidine] | 39.5% | 91.8% | – | – | – | –
Cc1nc(SCCN2CCCCCC2)nn1-c1ccc(Cl)c(Cl)c1 [compound 6, 1-[2-(1-(3,4-dichlorophenyl)-5-methyl-1H-1,2,4-triazol-3-yl-thio)ethyl]azepane oxalate] | 90.6% | 99.2% | – | – | – | –
Cc1nc(SCCN2CCCC2)nn1-c1ccc(Cl)c(Cl)c1 [compound 3, oxalate] | 103% | 106% | 1.4 nM | – | – | –
Cc1nc(SCCCN2CCCC2)nn1-c1ccc(Cl)c(Cl)c1 [compound 8, 1-[3-(1-(3,4-dichlorophenyl)-5-methyl-1H-1,2,4-triazol-3-yl-thio)propyl]-4-pyrrolidine oxalate] | 57.4% | 82.5% | 2.1 nM | – | – | –
CCN(CC)CCS(=O)(=O)c1nc(C)n(-c2ccc(Cl)c(Cl)c2)n1 [compound 20, 2-[1-(3,4-Dichlorophenyl)-5-methyl-1H-1,2,4-triazol-3-ylsulfonyl]-N,N-diethylethanamine] | 51.2% | 82.1% | 16.7 nM | – | – | –
Cc1nc(SCCCCCN2CCCCC2)nn1-c1ccc(Cl)c(Cl)c1 [compound 12, 1-[5-(1-(3,4-dichlorophenyl)-5-methyl-1H-1,2,4-triazol-3-ylthio)pentyl]piperidine oxalate] | 52.1% | 82.8% | – | – | – | –
Cc1nc(OCCN2CCOCC2)nn1-c1ccc(Cl)c(Cl)c1 [compound 25, 4-[2-(1-(3,4-Dichlorophenyl)-5-methyl-1H-1,2,4-triazol-3-yloxy)ethyl]morpholine oxalate] | 33.8% | 83.8% | – | – | – | –
Cc1nc(SCCCN2CCC(c3ccccc3)CC2)nn1-c1ccc(Cl)c(Cl)c1 [compound 9, 1-[3-(1-(3,4-dichlorophenyl)-5-methyl-1H-1,2,4-triazol-3-ylthio)propyl]-4-phenylpiperidine oxalate] | 74.2% | 89% | 9 nM | – | – | –
Cc1nc(SCCCN2CCOCC2)nn1-c1ccc(Cl)c(Cl)c1 [compound 7, 4-[3-(1-(3,4-Dichlorophenyl)-5-methyl-1H-1,2,4-triazol-3-ylthio)propyl]morpholine oxalate] | 67.8% | 85.5% | 8.2 nM | – | – | –
Cc1nc(SCCCCCN2CCOCC2)nn1-c1ccc(Cl)c(Cl)c1 [compound 13, 4-[5-(1-(3,4-Dichlorophenyl)-5-methyl-1H-1,2,4-triazol-3-ylthio)pentyl]morpholine oxalate] | 4.3% | 58.2% | – | – | – | –
CCN(CC)CCOc1nc(C)n(-c2ccc(Cl)c(Cl)c2)n1 [compound 23, 2-[1-(3,4-Dichlorophenyl)-5-methyl-1H-1,2,4-triazol-3-yloxy]-N,N-diethylethanamine] | 32.2% | 85% | – | – | – | –
Cc1nc(SCCN(C(C)C)C(C)C)nn1-c1ccc(Cl)c(Cl)c1 [compound 4, oxalate] | – | – | – | 1.1 nM | 105% | 109%
Cc1nc(SCCCCN2CCC(c3ccccc3)CC2)nn1-c1ccc(Cl)c(Cl)c1 [compound 10, 1-[4-(1-(3,4-dichlorophenyl)-5-methyl-1H-1,2,4-triazol-3-yl-thio)butyl]-4-phenylpiperidine oxalate] | 27.3% | 88.1% | – | – | – | –
Cc1nc([S+]([O-])CCN2CCOCC2)nn1-c1ccc(Cl)c(Cl)c1 (stereo not shown) [compound 16, 4-[2-(1-(3,4-dichlorophenyl)-5-methyl-1H-1,2,4-triazol-3-yl-sulfinyl)-ethyl]-morpholine] | 28.6% | 42% | – | – | – | –
